We go through three molecules from patent publication US20100010082A1, “FORMULATIONS FOR TREATING EYE DISORDERS” (Aspreva International Ltd., priority 2008, published 2010).

Structures are written as SMILES. Where two headings read alike, the source gives them in different places. Marks after values point to notes of the source that are not given here.

The conditions of data set [1]: CellCept® label / Myfortic® label; cited from earlier work.
Data set [2] relates to Bovine Ocular Melanin Induced Uveitis in Lewis Rats.
Data set [3] concerns Con-A-induced dry eye in NZW rabbits. Put plainly: Con A induced dry eye model, Tear Break-up Test (TBUT). The class given is in vivo, Oryctolagus cuniculus.
The test system of data set [4] is Scopolamine Induced Dry Eye in C57BL/6 Mice. Put plainly: Scopolamine induced dry eye model. The class given is in vivo, Mus musculus. As to conditions: by the end of the study (Day 13). As for the experimental part: This dry eye model was based on that described in De Paiva et al., 2006, Investigative Opthalmology & Visual Science 47(7):2847-2856, incorporated herein by reference. The study consisted of seven groups of 10 female C57BL/6 mice each. Starting on Day 0, mice of Groups 1-6 were treated four times-daily (QID) with topical bilateral ocular (OU) administration of control or test articles at intervals of at least two hours. […] Mice in Group 7 served as untreated controls. On Day 3, scopolamine patches were placed on the tails of the mice and replaced every other day (Q2D) thereafter. From Days 3-12, mice were maintained in an environment with high-volume air draft (see Environmental stress section, below). […]
For each day of administration, mice were briefly restrained. […] Following patch application, animals were monitored for any adverse reactions, including the condition of the tail and Vetwrap®. […]
Slit Lamp Corneal Examinations. Both eyes of each animal were evaluated via a slit lamp ophthalmic examination using topically-applied fluorescein. Fluorescein dye was used to examine the surface of the cornea and scored.
Pathology. […] A board-certified veterinary pathologist evaluated slides via light microscopy. […]
Eyes were serially sectioned and examined. The representative corneas were scored based upon a 0-4 scale, with 0 being normal, 1 being minimal, 2 being mild, 3 being moderate, and 4 being severe. […]

[5] abbreviates: Days 17/18, pooled average (+/−SEM) of both eyes.
Setting [6] is: Days 19/20, pooled average (+/−SEM) of both eyes.
Setting [7] is: Days 26/27, pooled average (+/−SEM) of both eyes.
Where [8] appears, read: Days 28/29, pooled average (+/−SEM) of both eyes.
Where [9] appears, read: Days −2/−1 (before immunization and dosing).

As to `COc1c(C)c2c(c(O)c1C/C=C(\C)CCC(=O)OCCN1CCOCC1)C(=O)OC2` [MMF, mycophenolate mofetil], in data set [1], the “solubility (in words)” value was “only slightly soluble in water”.
Take `COc1c(C)c2c(c(O)c1C/C=C(\C)CCC(=O)[O-])C(=O)OC2.[Na+]` [NaMPA, sodium mycophenolic acid]: the “solubility (in words)” value in data set [1] is listed as “highly soluble in aqueous solutions at physiological pH”.
Regarding `C[C@@H]1C[C@H]2[C@@H]3CCC4=CC(=O)C=C[C@]4(C)[C@@]3(F)[C@@H](O)C[C@]2(C)[C@@]1(O)C(=O)CO` [dexamethasone], the “Hyperemia Scores (pooled)” value in data set [2] (Days 14/15, pooled average (+/−SEM) of both eyes) is reported as 2.0 ±; in data set [2] (setting [5]) it was 2.2 ±; in data set [2] (setting [6]), 3.0 ± 0.0; in data set [2] (setting [7]), 1.5 ± 0.5; in data set [2] (setting [8]), 0.0*; in data set [2] (setting [9]), 0. Besides, the “Opacity Scores (pooled)” value in data set [2] (setting [5]) is 1.1 ±; in data set [2] (setting [6]), 2.0 ± 0.0; in data set [2] (setting [7]), 1.3 ± 0.5; in data set [2] (setting [8]), 0.0*; in data set [2] (setting [9]), 0. Moreover, in data set [2] (rat, in vivo), the “weight loss during study” value is reported as “significant drug-related weight loss”. Further, the “TBUT, post-hoc Tukey P vs. Vehicle” value is listed as <0.01 in data set [3] (D6 (before Con A injection on Day 8)); <0.05 in data set [3] (D9); <0.01 in data set [3] (D10); <0.001 in data set [3] (D14); <0.01 in data set [3] (D15); <0.001 in data set [3] (D16). In data set [3] (D17), the “TBUT, post-hoc Tukey P vs. Vehicle” value is <0.001. In addition, in data set [4], the “weight loss relative to other groups” value is “approx. 20%”.
